Data set [1] deals with Trichostrongylus columbriformis. Nature of the data set: In vivo efficacy against T. colubriformis in infected gerbils. As to conditions: gerbils infected with T. colubriformis, single oral dose of 50 mg/kg by gavage, worm counts four days post-treatment, % mortality as compared to negative control. An outline of the steps: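 Gerbils infected with ~800 L3/mL larvae were treated one week later by gavage with a single 50 mg/kg oral dose in PEG 400:DMSO (1:2 v/v), 3 animals per group. Necropsy four days post-treatment, with worms counted under stereoscopes.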

For another data set, the system named is C. elegans. Nature of the data set: Efficacy against nematodes (C. elegans motility rating). The arrangement: key: 0: no effect; 7: reduced movement in 24 h; 8: dead in 24 h; 9: dead in 4 h. As to conditions: observations at 4 h and 24 h postimmersion. An outline of the steps:
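Mixed-stage C. elegans (~50 per well, L1 to adult) in M9 buffer exposed to test compound at 100 ppm, 150 ppm or 200 μM final. Motility of larvae and adults scored under dissecting microscope at 4 h and 24 h.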

Data set [2] is described as follows: Toxicity in treated gerbils (deaths or significant weight loss). The class given is in vivo. Details: key: +: Toxicity is indicated for those groups having one or more animals expired. The following applies: single oral dose of 50 mg/kg. As to the method: In this evaluation, gerbils are infected with Trichostrongylus columbriformis infective larvae at a concentration of approximately 800 L3/mL. Larvae for gerbil infections are cultured from feces from sheep previously infected with T. colubriformis. One week post infection, test compounds are administered by gavage as a single oral dose of 50 mg/kg of body weight. For each group of 3 gerbils, 10 mg of test compound are dissolved in 2 mL of PEG 400:DMSO (1:2 v/v) and each animal is administered the test solution at a rate of 0.1 mL/10 g of body weight. […] All animals are observed daily for morbidity and mortality. Four days post-treatment, all animals are weighed and necropsied. Worm counts are conducted with the use of stereoscopes and counters.

Consider `O=C1OC(=Cc2ccc(F)cc2)C(O)=C1c1ccc(C(F)(F)F)cc1` (mixture of isomers) [R=H; R1=4-CF3—C6H4**; R2=4-F—C6H4], for which the Mortality in data set [1] was found to be 95.80%. In the data set with C. elegans (dose 100 ppm), this molecule showed a Rating of 9. Further, the Toxicity result in data set [2] (groups of 3) was “+”.

For the molecule `N#Cc1ccc(C2=C(O)C(=Cc3ccc(OC(F)(F)F)cc3)OC2=O)cc1` (mixture of isomers) [R=H; R1=4-CN—C6H4**; R2=4-OCF3—C6H4], the Mortality in data set [1] was 90.00%. In the data set on C. elegans (dose 100 ppm), this molecule returned a Rating of 9. Besides, the Toxicity entry in data set [2] (groups of 3) is “+”.

Molecule `O=C1OC(=Cc2ccc(F)cc2)C(O)=C1c1ccc(Cl)cc1` (mixture of isomers) [R=H; R1=4-Cl—C6H4**; R2=4-F—C6H4] gave a Mortality in data set [1] of 72.60%. In the data set with C. elegans (dose 100 ppm), the Rating came out at 9. Besides, the Toxicity entry in data set [2] (groups of 3) was “+”.

In data set [1], `O=C1OC(=Cc2ccc(Cl)c(Cl)c2)C(O)=C1c1ccc(OC(F)(F)F)cc1` (mixture of isomers) [R=H; R1=4-OCF3—C6H4**; R2=3,4-diCl—C6H3] displayed a Mortality of 100.0%. The Rating in the data set on C. elegans (dose 100 ppm) is 9. The Toxicity entry in data set [2] (groups of 3) is reported as “+”.

The molecule `O=C1OC(=Cc2ccc(F)c(F)c2)C(O)=C1c1ccc(OC(F)(F)F)cc1` (mixture of isomers) [R=H; R1=4-OCF3—C6H4**; R2=3,4-diF—C6H3] displayed a Mortality in data set [1] of 100.0%. The molecule also displayed a Rating in the data set on C. elegans (dose 100 ppm) of 9. For the same molecule, in data set [2] (groups of 3), the Toxicity entry is “+”.

In data set [1], `O=C1OC(=Cc2ccc(C(F)(F)F)cc2)C(O)=C1c1ccc(OC(F)(F)F)cc1` (mixture of isomers) [R=H; R1=4-OCF3—C6H4**; R2=4-CF3—C6H4] came in with a Mortality of 55.50%. Moreover, the Rating in the data set on C. elegans (dose 100 ppm) was 9. In addition, in data set [2] (groups of 3), the Toxicity result is “+”.

In data set [1], `N#Cc1ccc(C=C2OC(=O)C(c3ccc(OC(F)(F)F)cc3)=C2O)cc1` (mixture of isomers) [R=H; R1=4-OCF3—C6H4**; R2=4-CN—C6H4] returned a Mortality of 88.90%. Moreover, in the data set on C. elegans (dose 100 ppm), the Rating is on record as 9. In data set [2] (groups of 3), the Toxicity entry is reported as “+”.

Turning to `O=C1OC(=Cc2ccc(Cl)cc2)C(O)=C1c1ccc(OC(F)(F)F)cc1` (mixture of isomers) [R=H; R1=4-OCF3—C6H4**; R2=4-Cl—C6H4], the Mortality in data set [1] came out at 100.0%. The molecule also came in with a Rating in the data set on C. elegans (dose 100 ppm) of 9. Also, in data set [2] (groups of 3), the Toxicity result was “+”.

Regarding `O=C1OC(=Cc2ccc(F)cc2)C(O)=C1c1ccc(OC(F)(F)F)cc1` (mixture of isomers) [R=H; R1=4-OCF3—C6H4**; R2=4-F—C6H4], the Mortality in data set [1] amounted to 0.00%. The Rating in the data set with C. elegans (dose 100 ppm) came to 9. Besides, in data set [2] (groups of 3), the Toxicity entry was “+”.

Molecule `O=C1OC(=Cc2ccc(OC(F)(F)F)cc2)C(O)=C1c1ccc(OC(F)(F)F)cc1` (mixture of isomers) [R=H; R1=4-OCF3—C6H4**; R2=4-OCF3—C6H4] displayed a Mortality in data set [1] of 100.0%. The molecule also displayed a Rating in the data set on C. elegans (dose 100 ppm) of 9. In addition, the Toxicity entry in data set [2] (groups of 3) is reported as “+”.

`O=C1O/C(=C\c2ccc(-c3ccccc3)cc2)C(O)=C1c1cc(C(F)(F)F)cc(C(F)(F)F)c1` [R=H; R1=3,5-diCF3—C6H3; R2=4-biphenyl]: the Mortality in data set [1] was found to be 60.80%. The molecule further came in with a Rating in the data set with C. elegans (dose 150 ppm) of 9. For the same molecule, the Toxicity entry in data set [2] (groups of 3) is “+”.

`O=C1O/C(=C\c2ccc(-c3ccccc3)cc2)C(O)=C1c1cc(Cl)cc(Cl)c1` [R=H; R1=3,5-diCl—C6H3; R2=4-biphenyl]: in data set [1], the Mortality amounted to 52.60%. This molecule also showed a Rating in the data set on C. elegans (dose 150 ppm) of 9. For the same molecule, in data set [2] (groups of 3), the Toxicity entry is reported as “+”.

Regarding `N#Cc1ccc(-c2ccc(/C=C3\OC(=O)C(c4ccc(Cl)cc4)=C3O)cc2)cc1` [R=H; R1=4-Cl—C6H4; R2=4-(4′-CN-biphenyl)], the Mortality in data set [1] (50 mg/kg) came to 48.90%. The same molecule had a Rating in the data set with C. elegans (dose 150 ppm) of 9. Further, in data set [2] (groups of 3, 50 mg/kg), the Toxicity result is on record as “+”.

The molecule `O=C1O/C(=C\c2ccc(-c3ccc(Cl)cc3)cc2)C(O)=C1c1ccc(Cl)cc1` [R=H; R1=4-Cl—C6H4; R2=4-(4′-Cl-biphenyl)] displayed a Mortality in data set [1] of 61.33%. In addition, in the data set with C. elegans (dose 150 ppm), the Rating was found to be 9. Moreover, the Toxicity entry in data set [2] (groups of 3) is “+”.

`O=C1O/C(=C\c2ccc(Cl)cc2)C(O)=C1c1ccc(Cl)cc1` [R=H; R1=4-Cl—C6H4; R2=4-Cl—C6H4] came in with a Mortality in data set [1] of 79.78%. For the same molecule, the Rating in the data set on C. elegans (dose 150 ppm) came out at 9. Besides, the Toxicity entry in data set [2] (groups of 3) is given as “+”.

In data set [1], `O=C1O/C(=C\c2ccc(-c3ccccc3)cc2)C(O)=C1c1ccc(Cl)cc1` [R=H; R1=4-Cl—C6H4; R2=4-biphenyl] yielded a Mortality of 33.10%. Moreover, in data set [2] (groups of 3), the Toxicity entry is “+”.

These data come from patent US7495027B2, “3-aryl-4-hydroxyfuranone compounds and the human and animal health use thereof” (Wyeth, priority 2003, dated 2009).
